This is an account of results in patent US11053226B2, “KRAS G12C inhibitors and methods of using the same” (Amgen Inc., priority 2018, dated 2021).

Some results are limits rather than exact numbers.

One experiment has as its system Phosphorylation of ERK1/2 in A549 cells. The experiment in a line: Phospho-ERK1/2 MSD Assay (A549). The settings on record: Homo sapiens, A549, 4 h, read-out: pERK IC50 (4 h, A549), 4 h compound treatment. The format is cell-based.
The IC50 is the concentration that inhibits the measured activity by half. `C=CC(=O)N1CC(NC(=O)Cn2c(C)c(C(=O)N3CCN(c4ccc(C#N)cn4)C[C@@H]3C)c3cc(Br)ccc32)C1` [Example 81]: the IC50 was over 100 µM. Consider `C=CC(=O)N1CC(NC(=O)Cn2c(C)c(C(=O)N3CCN(c4ccc(C#N)cn4)CC3)c3cc(Br)ccc32)C1` [Example 83], for which the IC50 is over 100 µM.

In the case of `C=CC(=O)N1CC(NC(=O)Cn2cc(C(=O)N3CCc4c(ccnc4OC)C3)c3cc(Br)ccc32)C1` [Example 89], the IC50 is over 100 µM. Still for that read-out and setting: the figure for `C=CC(=O)N1CC(NC(=O)Cn2cc(C(=O)N3CCN(c4ccc(OC)cn4)CC3)c3cc(Br)ccc32)C1` [Example 93] is over 100 µM. On the same count and under the same terms, the figure for `C=CC(=O)N1CC(NC(=O)Cn2cc(C(=O)N3CCc4c(ccc(Cl)c4Cl)C3)c3cc(Br)ccc32)C1` [Example 96] is 30.5 µM; for `C=CC(=O)N1CC(NC(=O)Cn2cc(C(=O)N3CCN(c4ccc([N+](=O)[O-])cn4)CC3)c3cc(Br)ccc32)C1` [Example 99] it is over 100 µM; for `C=CC(=O)N1CC(NC(=O)Cn2cc(C(=O)N3CCO[C@H](c4ccccc4)C3)c3cc(Br)ccc32)C1` [Example 103] it is over 100 µM. Regarding `C=CC(=O)N1CC(NC(=O)Cn2cc(C(=O)OC)c3cc(Br)ccc32)C1` [Example 108], the IC50 is over 100 µM. Still for that read-out and setting: the result for `C=CC(=O)N1CC(NC(=O)Cn2c(C)c(C(=O)N3CCc4ncccc4C3)c3cc(Br)ccc32)C1` [Example 116] reads over 100 µM; that for `C=CC(=O)N1CC(NC(=O)Cn2cc(C(=O)N3CCc4c(F)cccc4C3)c3cc(Br)ccc32)C1` [Example 118], over 100 µM; that for `C=CC(=O)N1CC(NC(=O)Cn2cc(C(=O)N3CCc4c(Br)cc(C)cc4C3)c3cc(Br)ccc32)C1` [Example 120], 28.4 µM. Turning to `C=CC(=O)N1CC(NC(=O)Cn2cc(C(=O)NCCc3nccs3)c3cc(Br)ccc32)C1` [Example 123], the IC50 is over 100 µM. On the same count and under the same terms, the figure for `C=CC(=O)N1CC(NC(=O)Cn2cc(C(=O)N3CCc4cc(C(=O)OC)ccc4C3)c3cc(Br)ccc32)C1` [Example 124] is over 100 µM; for `C=CC(=O)N1CC(NC(=O)C(C)n2c(C)c(C(=O)N3CCc4c(cccc4OC)C3)c3cc(Cl)ccc32)C1` (centres unmarked) [Example 126] it is 48.4 µM; for `C=CC(=O)N1CC(NC(=O)Cn2cc(C(=O)NCC(c3sccc3C)N(C)C)c3cc(Br)ccc32)C1` (centres unmarked) [Example 127] it is over 100 µM. On the same count and under the same terms, the result for `C=CC(=O)N1CC(NC(=O)Cn2cc(C(=O)N3CCc4ccccc4C3)c3cc(Br)ccc32)C1` [Example 129] reads over 100 µM; that for `C=CC(=O)N1CC(NC(=O)Cn2cc(C(=O)N3CCc4c(C#N)cccc4C3)c3cc(Br)ccc32)C1` [Example 134], over 100 µM; that for `C=CC(=O)N1CC(NC(=O)Cn2cc(C(=O)NCCc3ccccc3)c3cc(Br)ccc32)C1` [Example 140], over 100 µM.

For the molecule `C=CC(=O)N1CC(NC(=O)Cn2cc(C(=O)N(C)Cc3ccccc3)c3cc(Br)ccc32)C1` [Example 155], the IC50 was over 100 µM. Turning to `C=CC(=O)N1CC(NC(=O)Cn2cc(C(=O)NCc3ccccc3)c3cc(Br)ccc32)C1` [Example 163], the IC50 was over 100 µM.

The same experiment, now with this note: Homo sapiens, read-out: pERK IC50 (4 h), 4 h compound treatment.
For `C=CC(=O)N1CC(NC(=O)Cn2c3c(c4cc(Br)ccc42)CCN(C(=O)OC(C)(C)C)C3)C1` [Example 100], the IC50 is over 33.3 µM.

Staying with this experiment, now noted: read-out: pERK IC50 (4 h, A549), 4 h compound treatment.
Turning to `C=CC(=O)N1CC(NC(=O)Cn2cc(C(=O)N3CCc4cc(Br)ccc4C3)c3cc(Br)ccc32)C1` [Example 104], the IC50 amounted to 14.6 µM.

Turning to `C=CC(=O)N1CC(NC(=O)Cn2cc(C(=O)N3CCc4cc(Br)ccc4C3)c3cc(Br)ccc32)C1` [Example 106], the IC50 worked out at 44.7 µM.

Another experiment has as its system Phosphorylation of ERK1/2 in MIA PaCa-2 cells. The experiment in a line: Phospho-ERK1/2 MSD Assay. The format is cell-based. The settings on record: Homo sapiens, MIA PaCa-2, 4 h, read-out: pERK IC50 (4 h, MiaPaCa-2), 4 h compound treatment; MiaPaCa-2 cells. Here is the method:
For compounds in Table 9, the following assay conditions were employed:
Phospho-ERK1/2 MSD Assay:
Sixteen hours prior to compound treatment, MIA PaCa-2 cells were seeded in 96-well cell culture plates at a density of 25,000 cells/well and incubated at 37° C., 5% CO2. […] Following compound treatment, cells were stimulated with 10 ng/mL EGF (Roche 11376454001) for 10 min, washed with ice-cold Dulbecco's phosphate-buffered saline, no Ca^2+ or Mg^2+ (ThermoFisher Scientific 14190144), and then lysed in RIPA buffer (50 mM Tris-HCl pH 7.5, 1% Igepal, 0.5% sodium deoxycholate, 150 mM NaCl, and 0.5% sodium dodecyl sulfate) containing protease inhibitors (Roche 4693132001) and phosphatase inhibitors (Roche 4906837001). […] Assay plates were read on a Meso Scale Discovery Sector Imager 6000, and data were analyzed using a 4-parameter logistic model to calculate IC50 values.
As for `C=CC(=O)N1CC(NC(=O)Cn2c(C)c(C(=O)N3CCN(c4ccc(C#N)cn4)C[C@@H]3C)c3cc(Br)ccc32)C1` [Example 81], the IC50 amounted to 12.5 µM.

On to `C=CC(=O)N1CC(NC(=O)Cn2c(C)c(C(=O)N3CCN(c4ccc(C#N)cn4)CC3)c3cc(Br)ccc32)C1` [Example 83], for which the IC50 is 13.6 µM. As for `C=CC(=O)N1CC(NC(=O)Cn2cc(C(=O)N3CCc4c(ccnc4OC)C3)c3cc(Br)ccc32)C1` [Example 89], the IC50 came to 14.9 µM. Still for that read-out and setting: the result for `C=CC(=O)N1CC(NC(=O)Cn2cc(C(=O)N3CCN(c4ccc(OC)cn4)CC3)c3cc(Br)ccc32)C1` [Example 93] reads 16.5 µM; that for `C=CC(=O)N1CC(NC(=O)Cn2cc(C(=O)N3CCc4c(ccc(Cl)c4Cl)C3)c3cc(Br)ccc32)C1` [Example 96], 17.4 µM; that for `C=CC(=O)N1CC(NC(=O)Cn2cc(C(=O)N3CCN(c4ccc([N+](=O)[O-])cn4)CC3)c3cc(Br)ccc32)C1` [Example 99], 18.9 µM.

Consider `C=CC(=O)N1CC(NC(=O)Cn2cc(C(=O)N3CCO[C@H](c4ccccc4)C3)c3cc(Br)ccc32)C1` [Example 103], for which the IC50 came out at 21.6 µM. As to `C=CC(=O)N1CC(NC(=O)Cn2cc(C(=O)N3CCc4cc(Br)ccc4C3)c3cc(Br)ccc32)C1` [Example 104], the IC50 worked out at 21.7 µM. With `C=CC(=O)N1CC(NC(=O)Cn2cc(C(=O)OC)c3cc(Br)ccc32)C1` [Example 108], the IC50 was determined as 23.5 µM.

As to `C=CC(=O)N1CC(NC(=O)Cn2c(C)c(C(=O)N3CCc4ncccc4C3)c3cc(Br)ccc32)C1` [Example 116], the IC50 was found to be 28.5 µM. On the same count and under the same terms, the result for `C=CC(=O)N1CC(NC(=O)Cn2cc(C(=O)N3CCc4c(Br)cc(C)cc4C3)c3cc(Br)ccc32)C1` [Example 120] reads 30.8 µM; that for `C=CC(=O)N1CC(NC(=O)Cn2cc(C(=O)NCCc3nccs3)c3cc(Br)ccc32)C1` [Example 123], 32.4 µM.

For `C=CC(=O)N1CC(NC(=O)Cn2cc(C(=O)N3CCc4cc(C(=O)OC)ccc4C3)c3cc(Br)ccc32)C1` [Example 124], the IC50 was found to be 32.9 µM. On the same count and under the same terms, the figure for `C=CC(=O)N1CC(NC(=O)C(C)n2c(C)c(C(=O)N3CCc4c(cccc4OC)C3)c3cc(Cl)ccc32)C1` (centres unmarked) [Example 126] is 33.9 µM. For the molecule `C=CC(=O)N1CC(NC(=O)Cn2cc(C(=O)NCC(c3sccc3C)N(C)C)c3cc(Br)ccc32)C1` (centres unmarked) [Example 127], the IC50 is 34.3 µM. Consider `C=CC(=O)N1CC(NC(=O)Cn2cc(C(=O)N3CCc4c(C#N)cccc4C3)c3cc(Br)ccc32)C1` [Example 134], for which the IC50 was determined as 38 µM.

Still in this experiment, the particulars now being: Homo sapiens, MIA PaCa-2, read-out: pERK IC50 (4 h); 4 h compound treatment; MiaPaCa-2 cells.
Take `C=CC(=O)N1CC(NC(=O)Cn2c3c(c4cc(Br)ccc42)CCN(C(=O)OC(C)(C)C)C3)C1` [Example 100]: the IC50 was 19.4 µM.

Still in this experiment, the particulars now being: read-out: pERK IC50 (4 h, MiaPaCa-2); 4 h compound treatment; MiaPaCa-2 cells.
For the molecule `C=CC(=O)N1CC(NC(=O)Cn2cc(C(=O)N3CCc4cc(Br)ccc4C3)c3cc(Br)ccc32)C1` [Example 106], the IC50 worked out at 22.2 µM.
